Several values for one entry are separate records, joined by “and”; a condition that tells them apart may be missing. Equal entries are not always repeated.
Experiments:
[1] = target: T1, Polθ-pol (Homo sapiens, UniProt O75417); assay: MMEJ in vitro assay; type: biochemical
T1 construct: purified recombinant human Polθ-pol (comprising amino acid residues 1792–2590); made in house
T1 sequence (O75417 1792-2590): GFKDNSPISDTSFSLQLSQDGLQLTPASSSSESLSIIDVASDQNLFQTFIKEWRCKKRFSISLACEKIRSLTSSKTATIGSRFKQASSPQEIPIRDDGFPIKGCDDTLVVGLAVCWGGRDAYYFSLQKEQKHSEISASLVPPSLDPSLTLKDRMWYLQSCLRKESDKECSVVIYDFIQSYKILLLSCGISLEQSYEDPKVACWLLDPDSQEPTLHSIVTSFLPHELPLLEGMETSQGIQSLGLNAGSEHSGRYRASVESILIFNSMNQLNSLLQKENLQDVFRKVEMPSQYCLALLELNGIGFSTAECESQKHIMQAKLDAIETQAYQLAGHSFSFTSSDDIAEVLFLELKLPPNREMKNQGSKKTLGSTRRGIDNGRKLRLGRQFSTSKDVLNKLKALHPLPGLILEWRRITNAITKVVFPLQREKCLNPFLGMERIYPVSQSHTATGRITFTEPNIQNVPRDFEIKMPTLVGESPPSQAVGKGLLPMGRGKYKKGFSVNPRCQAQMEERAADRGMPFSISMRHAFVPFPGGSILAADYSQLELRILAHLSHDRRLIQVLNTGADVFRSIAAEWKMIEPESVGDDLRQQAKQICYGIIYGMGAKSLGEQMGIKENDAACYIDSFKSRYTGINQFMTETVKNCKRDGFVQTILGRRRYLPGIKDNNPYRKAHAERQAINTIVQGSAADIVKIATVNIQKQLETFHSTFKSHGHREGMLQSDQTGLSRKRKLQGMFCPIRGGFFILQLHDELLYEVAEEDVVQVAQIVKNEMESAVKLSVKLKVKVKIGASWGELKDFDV
Description: For the MMEJ in vitro assay in the presence of RTx-161, 10 nM Polθ-pol was first mixed with DMSO (3% final concentration) or RTx-161 at indicated final concentrations 4–500 nM in reaction buffer (25 mM Tris-HCl pH 7.5, 10 mM MgCl2, 10% glycerol, 0.1 mg/mL BSA, 0,01% IGEPAL CA-630, 1 mM DTT) followed by incubation for 5 min at room temperature. MMEJ reactions were started by the addition of 50 μM dNTP and 25 nM 5’-^32P radiolabeled pssDNA (RP343/^32P-RP344), incubated for 15 min at 37 °C, stopped by the addition of denaturing formamide loading buffer with 50 mM EDTA, resolved in denaturing 20% PAGE and analyzed using Typhoon PhosphorImager (GE Amersham). Quantification was performed using ImageQuant TL software. For the MMEJ in vitro assay in the presence of MC160385, 0.2–10 μM MC160385, 10 nM Polθ-pol, 60 nM 5’-^32P radiolabeled pssDNA and 100 μM dNTPs were used. The reaction was performed as above and stopped by the Proteinase K treatment in 50 mM EDTA and 0.5% SDS. The products were resolved in native 12% PAGE at room temp and analyzed as above.

[2] = system: CAPAN-1 cells; assay: Clonogenic assay; type: cell-based; details: for percent suvival: Capan-1 cells
How it was run: (§1)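 Cells seeded at low density (300–1000 per well, by plate size and genotype), medium changed every 2 days, colonies grown 10–12 days. Fixed in water:ethanol:acetic acid, stained with 0.5% crystal violet, then counted; IC50 from ≥3 independent experiments, mean ± SEM.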

[3] = system: HCT116 BRCA2 -/- cells; assay: Clonogenic assay; type: cell-based; details: for Average number of colonies counted / Normalized colonies (% normalized to control): per experiment
How it was run: as §1

[4] = system: PE01 ovarian cancer cells; assay: Clonogenic assay; type: cell-based; details: clonogenic survival
How it was run: as §1

For `CN(C(=O)Oc1ccc(C(F)(F)F)cc1C(F)(F)F)c1ccc(F)cc1` [MC160385], the “inhibition of Polθ-pol MMEJ activity in vitro” value [1] was “substantial Polθ-pol MMEJ inhibition”.

With `CN(C(=O)Oc1c(N2CCN(CCO)C2=O)cc(C(F)(F)F)cc1C(F)(F)F)c1ccc(F)cc1` [RTx-161] the “inhibition of Polθ-pol MMEJ activity in vitro” value [1] was “concentration dependent inhibition”, the percent suvival ([2]; RTX-161 2 micro M + ola 0.041 micro M, experiment block 1 (c0-c9)) was 16.0976% and the percent suvival ([2]; RTX-161 2 micro M + ola 0.041 micro M, experiment block 2 (c10-c19)) was 65.2438%. It also gave a percent suvival ([2]; RTX-161 2 micro M + ola 0.041 micro M, experiment block 3 (c20-c29)) of 82.5985%, a percent suvival ([2]; RTX-161 2 micro M + ola 0.123 micro M, experiment block 1 (c0-c9)) of 6.496% and a percent suvival ([2]; RTX-161 2 micro M + ola 0.123 micro M, experiment block 2 (c10-c19)) of 35.6906%. It also gave a percent suvival ([2]; RTX-161 2 micro M + ola 0.123 micro M, experiment block 3 (c20-c29)) of 71.0728%, a percent suvival ([2]; RTX-161 2 micro M + ola 0.37 micro M, experiment block 1 (c0-c9)) of 4.656% and a percent suvival ([2]; RTX-161 2 micro M + ola 0.37 micro M, experiment block 2 (c10-c19)) of 25.2846%. For the same compound, the percent suvival ([2]; RTX-161 2 micro M + ola 0.37 micro M, experiment block 3 (c20-c29)) was 54.8012%, the percent suvival ([2]; RTX-161 2 micro M + ola 1.11 micro M, experiment block 1 (c0-c9)) was 3.463% and the percent suvival ([2]; RTX-161 2 micro M + ola 1.11 micro M, experiment block 2 (c10-c19)) was 19.041%. For the same compound, the percent suvival ([2]; RTX-161 2 micro M + ola 1.11 micro M, experiment block 3 (c20-c29)) was 23.1621%, the percent suvival ([2]; RTX-161 2 micro M, ola 0.00 micro M, experiment block 1 (c0-c9)) was 102.855% and the percent suvival ([2]; RTX-161 2 micro M, ola 0.00 micro M, experiment block 2 (c10-c19)) was 79.1879%. It also gave a percent suvival ([2]; RTX-161 2 micro M, ola 0.00 micro M, experiment block 3 (c20-c29)) of 91.4122%, a percent suvival ([2]; RTX-161 6 micro M + ola 0.041 micro M, experiment block 1 (c0-c9)) of 15.5586% and a percent suvival ([2]; RTX-161 6 micro M + ola 0.041 micro M, experiment block 2 (c10-c19)) of 45.4723%. For the same compound, the percent suvival ([2]; RTX-161 6 micro M + ola 0.041 micro M, experiment block 3 (c20-c29)) was 68.5869%, the percent suvival ([2]; RTX-161 6 micro M + ola 0.123 micro M, experiment block 1 (c0-c9)) was 6.432% and the percent suvival ([2]; RTX-161 6 micro M + ola 0.123 micro M, experiment block 2 (c10-c19)) was 32.777%. It also gave a percent suvival ([2]; RTX-161 6 micro M + ola 0.123 micro M, experiment block 3 (c20-c29)) of 59.0951%, a percent suvival ([2]; RTX-161 6 micro M + ola 0.37 micro M, experiment block 1 (c0-c9)) of 6.745% and a percent suvival ([2]; RTX-161 6 micro M + ola 0.37 micro M, experiment block 2 (c10-c19)) of 21.1222%. For the same compound, the percent suvival ([2]; RTX-161 6 micro M + ola 0.37 micro M, experiment block 3 (c20-c29)) was 41.2416%, the percent suvival ([2]; RTX-161 6 micro M + ola 1.11 micro M, experiment block 1 (c0-c9)) was 6.364% and the percent suvival ([2]; RTX-161 6 micro M + ola 1.11 micro M, experiment block 2 (c10-c19)) was 17.1679%. The percent suvival ([2]; RTX-161 6 micro M + ola 1.11 micro M, experiment block 3 (c20-c29)) was 14.1224%, the percent suvival ([2]; RTX-161 6 micro M, ola 0.00 micro M, experiment block 1 (c0-c9)) was 109.215% and the percent suvival ([2]; RTX-161 6 micro M, ola 0.00 micro M, experiment block 2 (c10-c19)) was 55.8784%. The percent suvival ([2]; RTX-161 6 micro M, ola 0.00 micro M, experiment block 3 (c20-c29)) was 75.1407%, the percent suvival ([2]; RTX-161 18 micro M + ola 0.041 micro M, experiment block 1 (c0-c9)) was 10.9588% and the percent suvival ([2]; RTX-161 18 micro M + ola 0.123 micro M, experiment block 1 (c0-c9)) was 6.3155%. For the same compound, the percent suvival ([2]; RTX-161 18 micro M + ola 0.37 micro M, experiment block 1 (c0-c9)) was 7.064%, the percent suvival ([2]; RTX-161 18 micro M + ola 1.11 micro M, experiment block 1 (c0-c9)) was 6.846% and the percent suvival ([2]; RTX-161 18 micro M, ola 0.00 micro M, experiment block 1 (c0-c9)) was 83.7737%. For the same compound, the “combination with Olaparib” value ([2]; clonogenic survival) was “significantly reduced cellular resistance to Olaparib”, the IC50 ([3]; Homo sapiens, HCT-116, HCT116 cells, label beside BRCA2-null curve, read-out: IC50 clonogenic survival) was ~1 µM and the “Normalized colonies, pooled Average of 3 experiments” value (“Normalized colonies, pooled Average” below) ([3]; RTX-161 0.5 micro M) was 92.0788%. The “Average number of colonies counted” value ([3]; RTX-161 0.5 micro M) was 70 and 37.3333 and 38, the “Normalized colonies (% normalized to control)” value ([3]; RTX-161 0.5 micro M) was 74.7331% and 113.131% and 88.3721% and the “Normalized colonies, pooled Average” value ([3]; RTX-161 1 micro M) was 62.4064%. The “Average number of colonies counted” value ([3]; RTX-161 1 micro M) was 46.6667 and 26.6667 and 24.3333, the “Normalized colonies (% normalized to control)” value ([3]; RTX-161 1 micro M) was 49.8221% and 80.8081% and 56.5891% and the “Normalized colonies, pooled Average” value ([3]; RTX-161 2 micro M) was 32.1189%. For the same compound, the “Normalized colonies (% normalized to control)” value ([3]; RTX-161 2 micro M) was 33.0961% and 35.3535% and 27.907%, the “Normalized colonies, pooled Average” value ([3]; RTX-161 4 micro M) was 16.8132% and the “Normalized colonies, pooled Average” value ([3]; RTX-161 8 micro M) was 8.53%. For the same compound, the “combination with Rucaparib” value ([3]; clonogenic survival) was “strong synergistic activity”, the “combination with Olaparib” value ([3]; clonogenic survival, Combenefit synergy) was “strong synergistic activity” and the “selective killing of BRCA2-null HCT116 cells” value ([3]; colony survival, versus BRCA2-WT) was “selective killing”. For the same compound, the “combination with Olaparib” value [4] was “strongly potentiated the effects of Olaparib” and the single agent activity [4] was “little to no activity as a single agent”.

Source: publication PMC10997755, “Discovery of a small-molecule inhibitor that traps Polθ on DNA and synergizes with PARP inhibitors” (Nature Communications, 2024)
